Laboratory results as given in US20240182465A1 (GENFLEET THERAPEUTICS (SHANGHAI) INC., priority 2021, published 2024).
Where a name gives a salt, the structure may show the parent alone.

Tests used:
HPK1 [1] = biological target: T1, HPK1 (Homo sapiens, UniProt Q92918); experiment: HPK1 kinase activity assay (ADP-Glo); conditions: HPK1 Kinase activity IC50 (nM), 1 nM HPK1, 10 μM ATP, 0.1 μg/μL MBP
T1 sequence (Q92918 1-346 limits assumed): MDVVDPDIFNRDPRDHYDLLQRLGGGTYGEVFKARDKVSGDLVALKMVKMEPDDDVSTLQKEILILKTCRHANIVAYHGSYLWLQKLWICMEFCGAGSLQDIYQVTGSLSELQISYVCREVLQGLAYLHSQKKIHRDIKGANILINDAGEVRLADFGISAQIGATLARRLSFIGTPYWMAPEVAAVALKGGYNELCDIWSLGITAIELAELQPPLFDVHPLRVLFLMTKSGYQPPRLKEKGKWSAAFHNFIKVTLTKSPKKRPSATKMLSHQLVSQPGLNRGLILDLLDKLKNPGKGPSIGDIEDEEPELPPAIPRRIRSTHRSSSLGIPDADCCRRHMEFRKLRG

HPK1 [2] = biological target: HPK1 (Homo sapiens, UniProt Q92918); experiment: SLP76 phosphorylation assay (intracellular HPK1 inhibitory activity, p-SLP76 Ser376 sandwich ELISA); conditions: p-SLP76 IC50(nM), Jurkat, Clone E6-1 cells; 1 h compound pre-incubation, anti-CD3 beads stimulation 20 min; SLP76 phosphorylation at S376
Target sequence in this assay (Q92918 whole entry): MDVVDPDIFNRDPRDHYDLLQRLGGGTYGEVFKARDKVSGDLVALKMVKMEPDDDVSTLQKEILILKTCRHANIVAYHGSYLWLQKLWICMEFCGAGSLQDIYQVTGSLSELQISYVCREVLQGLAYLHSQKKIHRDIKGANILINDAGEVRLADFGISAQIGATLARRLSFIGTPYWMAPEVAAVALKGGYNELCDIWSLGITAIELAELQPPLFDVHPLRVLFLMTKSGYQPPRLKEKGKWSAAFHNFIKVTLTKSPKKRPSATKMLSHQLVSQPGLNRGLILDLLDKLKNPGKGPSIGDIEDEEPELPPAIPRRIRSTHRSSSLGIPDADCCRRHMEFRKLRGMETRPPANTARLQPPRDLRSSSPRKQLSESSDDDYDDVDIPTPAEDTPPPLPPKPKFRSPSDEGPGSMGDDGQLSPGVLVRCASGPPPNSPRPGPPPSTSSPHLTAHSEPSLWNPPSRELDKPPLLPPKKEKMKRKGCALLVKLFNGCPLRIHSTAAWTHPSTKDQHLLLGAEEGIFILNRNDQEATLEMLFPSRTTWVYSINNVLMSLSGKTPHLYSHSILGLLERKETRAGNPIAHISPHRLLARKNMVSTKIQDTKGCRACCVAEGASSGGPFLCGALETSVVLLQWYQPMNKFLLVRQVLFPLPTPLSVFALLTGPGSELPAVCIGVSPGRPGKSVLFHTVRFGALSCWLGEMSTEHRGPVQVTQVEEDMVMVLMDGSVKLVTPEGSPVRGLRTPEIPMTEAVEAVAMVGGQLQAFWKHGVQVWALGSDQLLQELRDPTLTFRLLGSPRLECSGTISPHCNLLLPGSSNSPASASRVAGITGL

## Cc1c[nH]c2ncc(-c3cc4c(c([C@@H]5CCCN5)c3)CN(C(=O)CC3CCOCC3)CC4)cc12 [Compound Z218, (S)-1-(6-(3-methyl-1H-pyrrolo[2,3-b]pyridin-5-yl)-8-(pyrrolidin-2-yl)-3,4-dihydroisoquinolin-2(1H)-yl)-2-(tetrahydro-2H-pyran-4-yl)ethanone]
HPK1 [1]
  IC50: 0.81 nM
HPK1 [2]
  IC50: 367 nM

## Cc1ncncc1C(=O)N1CCc2cc(-c3cnc4[nH]cc(C)c4c3)cc([C@@H]3CCCN3)c2C1 [Compound Z283, (S)-(6-(3-methyl-1H-pyrrolo[2,3-b]pyridin-5-yl)-8-(pyrrolidin-2-yl)-3,4-dihydroisoquinolin-2(1H)-yl) (4-methylpyrimidin-5-yl)methanone]
HPK1 [1]
  IC50: 0.3 nM
HPK1 [2]
  IC50: 286 nM

## COCC(=O)N1Cc2cc(-c3cnc4[nH]cc(C)c4c3)cc([C@@H]3CCCN3)c2C1 [Compound Z261, (S)-2-methoxy-1-(6-(3-methyl-1H-pyrrolo[2,3-b]pyridin-5-yl)-4-(pyrrolidin-2-yl)isoindolin-2-yl)ethan-1-one hydrochloride]
HPK1 [1]
  IC50: 2.63 nM
HPK1 [2]
  IC50: 842 nM

## CC(=O)N1Cc2cc(-c3cnc4[nH]cc(C)c4c3)cc([C@@H]3CCCN3)c2C1 [Compound Z235, (S)-1-(6-(3-methyl-1H-pyrrolo[2,3-b]pyridin-5-yl)-4-(pyrrolidin-2-yl)isoindolin-2-yl)ethan-1-one]
HPK1 [1]
  IC50: 1.32 nM
HPK1 [2]
  IC50: 735 nM

## CC(=O)N1CCc2cc(-c3cnc4[nH]cc(C)c4c3)cc(C3CCCN3)c2C1 (stereo not drawn) [Compound Z98, 1-(6-(3-methyl-1H-pyrrolo[2,3-b]pyridin-5-yl)-8(pyrrolidin-2-yl)-3,4-dihydroisoquinolin-2(1H)-yl)ethanone]
HPK1 [1]
  IC50: 0.9 nM
HPK1 [2]
  IC50: 237 nM

## CC(=O)N1CCc2cc(-c3cnc4[nH]cc(C)c4c3)cc([C@@H]3COCCN3)c2C1 (single isomer, unassigned) [Compound Z119-1]
HPK1 [1]
  IC50: 1.06 nM
HPK1 [2]
  IC50: 390 nM

## CN(C)Cc1cc(-c2cnc3[nH]cc(C(=O)NCC4(CO)CCC4)c3c2)cc2c1COCC2 [Compound Z107, 5-(8-((dimethylamino)methyl)isochroman-6-yl)-N-((1-(hydroxymethyl)cyclobutyl)methyl)-1H-pyrrolo[2,3-b]pyridine-3-carboxamide]
HPK1 [1]
  IC50: 5.79 nM
HPK1 [2]
  IC50: 525 nM

## Cc1c[nH]c2ncc(-c3cc4c(c([C@@H]5CCCN5)c3)CCN(CC3CCOCC3)C4)cc12 [Compound Z402, 7-(3-methyl-1H-pyrrolo[2,3-h]pyridin-5-yl)-2-(3,4,5,6-tetrahydro-2H-pyran-4-ylmethyl)-5-[(2S)-tetrahydro-1H-pyrrol-2-yl]-1,2,3,4-tetrahydroisoquinoline]
HPK1 [1]
  IC50: 1.2 nM
HPK1 [2]
  IC50: 454 nM

## Cc1c[nH]c2ncc(-c3cc4c(c([C@@H]5CCCN5)c3)COCC4)nc12 [Compound Z106, (S)-7-methyl-2-(8-(pyrrolidin-2-yl)isochroman-6-yl)-5H-pyrrolo[2,3-b]pyrazine]
HPK1 [1]
  IC50: 0.53 nM
HPK1 [2]
  IC50: 133 nM

## Cc1c[nH]c2ncc(-c3cc4c(c([C@@H]5CCCN5)c3)CN(C(=O)C3CCOCC3)CC4)cc12 [Compound Z127]
HPK1 [1]
  IC50: 0.58 nM
HPK1 [2]
  IC50: 204 nM

## Cc1c[nH]c2ncc(-c3cc4c(c(C5COCCN5)c3)CN(C(=O)[C@](C)(O)C(F)(F)F)CC4)cc12 (stereo partly drawn) [Compound Z296, (2S)-3,3,3-trifluoro-2-hydroxy-2-methyl-1-(6-(3-methyl-1H-pyrrolo[2,3-b]pyridin-5-yl)-8-(morpholin-3-yl)-3,4-dihydroisoquinolin-2(1H)-yl)propan-1-one]
HPK1 [1]
  IC50: 0.86 nM
HPK1 [2]
  IC50: 223 nM

## Cc1ccncc1C#Cc1c[nH]c2ncc(-c3cc4c(c([C@@H]5CCCN5)c3)COCC4)cc12 [Compound Z237, (S)-3-((4-methylpyridin-3-yl)ethynyl)-5-(8-(pyrrolidin-2-yl)isochroman-6-yl)-1H-pyrrolo[2,3-b]pyridine]
HPK1 [1]
  IC50: 0.71 nM
HPK1 [2]
  IC50: 100 nM
